Experiment [1] is described as follows: Tested for binding affinity towards Opioid receptor delta 1 in rat and guinea pig brain membrane binding assays.
Experiment [2] is described as follows: Tested for binding affinity towards Opioid receptor mu 1 in rat and guinea pig brain membrane binding assays.

Peptide text beside a SMILES is read from it. * marks the point of attachment. X1 = Cc1cc(O)cc(C)c1C[C@H](C)C(=O)*

Consider `Cc1cc(O)cc(C)c1C[C@H](C)C(=O)N[C@@H](C)C(=O)NCC(=O)N[C@@H](Cc1ccccc1)C(=O)N[C@@H](CC(C)C)C(N)=O` [(S)-2-[(S)-2-(2-{(S)-2-[(S)-3-(4-Hydroxy-2,6-dimethyl-phenyl)-2-methyl-propionylamino]-propionylamino}-acetylamino)-3-phenyl-propionylamino]-4-methyl-pentanoic acid amide] (X1-AGFL-NH2), for which the Ki – broadly, the dissociation constant of the complex between target and ligand, obtained from inhibition or displacement – in experiment [1] was 12 nM; in experiment [2], 192 nM.

The values are drawn from BindingDB's records for doi:10.1016/s0960-894x(00)00660-0 (Clinical Research Institute of Montreal, 2001).
